Test results: US20190083498A1, “THERAPIES FOR HEMATOLOGIC MALIGNANCIES” (GILEAD CALISTOGA LLC, priority 2008, published 2019)

Key:
[1] = system: LB cells; assay: MM cell growth with IGF-1 or IL-6, MTT; type: cell-based, human; settings: 0.625 μM-[…], IL-6 or IGF-1, 48 h
Procedure: LB cells (Myelomonocytic myeloma cell line) were cultured for 48 h with control media; with the compound of formula I, in the presence or absence of either IL-6 or IGF-1. […] Cells were pulsed with 10 μL of 5 mg/mL MTT to each well for the last 4 hours of 48-hour cultures, followed by 100 μL isopropanol containing 0.04 N HCl. Absorbance was measured at 570/630 nm using a spectrophotometer (Molecular Devices).

[2] = system: Akt (Ser473) phosphorylation; assay: Akt phosphorylation in ALL cell lines; type: cell-based
[3] = system: T47D and HS-578T cell lines; assay: Proliferation of breast cancer cell lines, AlamarBlue; type: cell-based; settings: with serum
Procedure: T47D and HS-578T cell lines were grown in the presence of serum plus the indicated concentrations of the compound of formula I. Proliferation was measured in triplicate wells by AlamarBlue® assay (Invitrogen) 96-well plates.

[4] = system: HS-578T, T47D, and MCF7 cells; assay: Apoptosis in breast cancer cell lines, Annexin V-FITC/7AAD; type: cell-based; settings: 24 h
Procedure: HS-578T, T47D, and MCF7 cells were treated with the compound of formula I or corresponding DMSO concentrations for 24 h. The percentage of apoptotic cells was determined by Annexin V-FITC/7AAD staining Bottom left, viable cells (Annexin V-FITC/[…] negative); bottom right, early apoptotic cells (Annexin V-FITC positive only); top right, mid-late apoptotic cells (Annexin V-FITC/7AAD double-positive); and top left, late apoptotic/necrotic (7AAD positive only). Percentages of cells in each quadrant are indicated except for the bottom left quadrant (viable cells).

[5] = human, in vivo
Procedure: This example provides data relating to the concentration of the compound of formula I in the blood of a healthy human subject on day 7. The concentration was monitored over a period of 12 hours, after oral administration of 50, 100, or 200 mg BID of the compound of formula I on day 7 of the study. FIG. 11 follows the plasma concentration of the drug over a period of 12 hours from administration.
In addition, single dose studies wherein 17-400 mg of the compound of formula I was administered in healthy volunteers was carried out.
Table 1, below, provides an overview of the subjects in the study, wherein either a singe dose (SD) or multiple dose (MD) of the compound of formula I is administered to a subject at varying amounts. The “n” values refer to the number of subjects in each group.

[6] = system: HuVECs; assay: HuVEC viability, MTT; type: cell-based, human; settings: 0-20 μM, 48 h
Description: Data shown are mean ±SE of triplicate wells from a representative experiment.

[7] = system: phospho-AKT (ser473) in INA-6 cells; assay: Bortezomib-induced AKT phosphorylation, western blotting; type: cell-based, human; settings: compound I 5 μM, bortezomib 5 nM; 6 h
Procedure: Phosphorylation of AKT was determined by western blotting of cell lysates using phospho-AKT (ser473) antibody, FIG. 37B. Actin served as a loading control.

[8] = system: MCL cell lines; assay: Survival factor signaling (pAkt) in MCL cell lines; type: cell-based
[9] = system: CLL cells with or without StromaNKTert; assay: CLL cell viability/apoptosis in stromal co-culture, Annexin V/PI FACS; type: cell-based, human; settings: 24 hours
Procedure: CLL cell and stromal cell co-cultures: CLL cells were cultured under standardized conditions on stromal cell lines or primary NLC. Briefly, stromal cells were seeded one day prior to each experiment onto 24-well plates (Corning Life Sciences) at a concentration of 3×10^5 cells/mL/well and incubated at 37° C. in 5% CO2. Stromal cell confluence was confirmed by phase contrast microscopy, and CLL cells were then added onto the stromal cell layer at a concentration of 3×10^6 cells/mL. Cultures were then treated with compounds for the specified time periods. CLL cells were removed for analysis by gentle pipetting with media, and were then washed in PBS prior to analysis. A 24-hour co-culture time point was used unless otherwise indicated.
Cell viability testing and reagents: CLL cell viability was determined by analysis of Annexin V-FITC (BD Biosciences, San Diego, Calif.) and Propidium Iodine (PI) (Sigma) by FACS.
To determine whether PI3K inhibition increased the sensitivity of stroma-exposed CLL cells by increasing priming, PB-derived CLL cells cultured with or without StromaNKTert cells for 24 hours and were examined using Annexin-PI and BH3 profiling. […] Stromal co-culture of four CLL patient samples led to protection from apoptosis in untreated cells.

[10] = system: CLL cells; assay: BH3 profiling, mitochondrial depolarization (JC-1); type: cell-based, human
Procedure: BH3 profiling: CLL patient peripheral blood, bone marrow, and lymph node samples were analyzed by either the plate-based fluorimetry or FACS method. Briefly, PBMCs from CLL patients were made into single cell suspensions and gently permeabilized using digitonin (0.002%). For the fluorimtery-based method, 100 μM JC-1 (Invitrogen) was added at this time and cells were then loaded onto a 384-well plate, with individual wells containing individual BH3-only peptides. The JC1-BH3 assays were then conducted in triplicate on a Tecan Safire 2 with Ex 545 +/−[…] and Em 590 +/−20 nm with a three-hour time course. For the FACS-based method, single cell suspensions from CLL patient PBMCs were stained using human Fc Block (BD Pharmingen) followed by anti-CD19-V450 (BD Pharmingen) and anti-CXCR4-APC (BD Pharmingen). […] JC-1 was measured from the 488-nm laser using a 530/30-nm filter (FITC) and a 585/42-nm filter (PE), and the degree of mitochondrial depolarization was calculated using the surrogate of the change in the median of PE signal. The mitochondrial depolarization reported in response to each BH3 peptide is normalized relative to the median percentage change in PE fluorescence of the JC-1 dye with a negative control, dimethyl sulfoxide (DMSO) (0%) and a positive control, the mitochondrial uncoupling agent carbonyl cyanide 4-(trifluoromethoxy)- phenylhydrazone (FCCP) (100%).

CC[C@H](Nc1ncnc2[nH]cnc12)c1nc2cccc(F)c2c(=O)n1-c1ccccc1 [Compound I, 5-fluoro-3-phenyl-2-[1-(9H-purin-6-ylamino)-propyl]-3H-quinazolin-4-one]
MM cell growth in the presence of cell growth stimulatory cytokines [1]: inhibits MM cell growth | Akt phosphorylation in ALL cell lines [2]: reduction in Akt phosphorylation | proliferation of breast cancer cell lines [3]: inhibits proliferation | apoptosis in breast cancer cell lines [4]: induces apoptosis | tolerability in normal healthy volunteers [5]: well tolerated | time the concentration exceeds the PI3Kδ EC50 concentration in basophil ([5]; 7 day): at least 12 hours | cytotoxicity in HuVECs [6]: without associated cytotoxicity | induction of phospho-Akt by bortezomib treatment [7]: inhibited | pAkt in MCL lines exposed to survival factors [8]: significant reduction of pAkt | CLL cell viability in stromal co-culture, single agent ([9]; 10 μM alone, two patients): profound stroma-mediated resistance | apoptosis versus control in the absence of stroma ([9]; four CLL patient samples): induce more apoptosis than the control | apoptosis versus control in the presence of stroma ([9]; four CLL patient samples): induce significantly more apoptosis than the control | mitochondrial priming of stroma-exposed CLL cells ([10]; 24 hours, p=0.075): increased mitochondrial priming | mitochondrial depolarization induced by BAD BH3 peptide and ABT-737 in treated CLL cells ([10]; p=0.046 and p=0.047): significantly more mitochondrial depolarization
